We go through 2 compounds from patent US20090023773A1, “COMPOSITIONS AND METHODS FOR MODULATING GATED ION CHANNELS” (PainCeptor Pharma Corporation, priority 2007, published 2009).

Assay [1] concerns chemically-induced spontaneous pain evoked by intraplantar injection of formalin. Description: Formalin test, model of acute tonic pain (Example 7). It is filed as in vivo. As to conditions: rat, 1 min prior to formalin. On the procedure:
Male Sprague-Dawley rats are housed together in groups of three animals under standard conditions with unrestricted access to food and water. All experiments are conducted according to the ethical guidelines for investigations of experimental pain in conscious animals (Zimmerman, 1983).
Assessment of formalin-induced flinching behavior in normal, uninjured rats (body weight 200-300 g) is made after formalin (2.5% in saline, 50-100 μl, s.c.) is injected into the plantar surface of the hindpaw using a 27 G needle. Rats are pretreated with test compounds either administered intravenously (IV), by subcutaneous injection (SC) or by orally (PO).
Nociceptive behavior is determined manually every 5 min by measuring the amount of time spent in each of four behavioral categories: 0, treatment of the injected hindpaw is indistinguishable from that of the contralateral paw; 1, the injected paw has little or no weight placed on it; 2, the injected paw is elevated and is not in contact with any surface; 3, the injected paw is licked, bitten, or shaken. A weighted nociceptive score, ranging from 0 to 3 is calculated by multiplying the time spent in each category by the category weight, summing these products, and dividing by the total time for each 5 min block of time. (Coderre et al., Pain 1993; 54: 43). On the basis of the resulting response patterns, […] of nociceptive behavior are identified and scored: first phase (P1; 0-5 min), interphase (Int; 6-15 min), second phase (P2; […]), phase 2A (P2A; 16-40 min) and phase 2B (P2B; 41-60 min).
Statistical analysis is performed using the Prism™ 4.01 software package (GraphPad, San Diego, Calif., USA). The difference in response levels between treatment groups and control vehicle group is analyzed using an ANOVA followed by Bonferroni's method for post-hoc pair-wise comparisons. A p value <0.05 is considered to be significant.

Another assay deals with ASIC2a+3. Description: Whole cell patch clamp of ASIC2a/3 channel complex heterologously expressed in CHO cells (Example 3). It is filed as cell-based. The conditions noted are these: 50 μM; CHO cells expressing ASIC2a+3; FIG. 10A. On the procedure:
Another example of an in vitro assessment method consists of using mammalian heterologous expression systems, which are known to the skilled in the art, and include a variety of mammalian cell lines such as COS, HEK, e.g., HEK293 and/or CHO, cells. Cell lines are transfected with gated ion channel(s) and used to perform electrophysiology as follows: All experiments are performed at room temperature (20-25° C.) in voltage clamp using conventional whole cell patch clamp methods (Neher, E., et al. (1978) Pfluegers Arch 375:219-228). The amplifier used is the EPC-9 (HEKA-electronics, Lambrect, Germany) run by a Macintosh G3 computer via an ITC-16 interface. Experimental conditions are set with the Pulse-software accompanying the amplifier. Data is low pass filtered and sampled directly to hard-disk at a rate of 3 times the cut-off frequency. […] The cells are held at a holding voltage of −60 mV and at the start of each experiment the current is continuously measured for 45 s to ensure a stable baseline. […] Current amplitudes are measured at the peak of the responses, and effect of the compounds is calculated as the amplitude at compound equilibrium divided by the amplitude of the current evoked by the pulse just before the compound is included. […] The trace represents the current evoked by the pH drop recorded using whole cell patch clamp electrophysiology.

Consider `Cc1cc(OC2CCN(Cc3ccccc3)CC2)c2cc(O)ccc2n1` [Compound 13, 4-(1-benzylpiperidin-4-yloxy)-2-methylquinolin-6-ol], for which the “pain intensity as evaluated by the licking behavior” value in assay [1] (SC, 2.5, 7.5, 25 and 75 mg/kg, FIG. 5A) was “dose-dependent reduction”. For the same compound, the median effective dose (ED50) in assay [1] (SC, FIG. 5B, read-out: ED50 (number of licking and biting episodes in phase IIa of the formalin test)) was around 6 mg/kg.

`Cc1ccc(-c2nc(Nc3ccc(C(=O)O)cc3)c3cc(Cl)ccc3n2)cc1` [Compound 124]: the “pH evoked response (ASIC2a+3 current)” value in the assay on ASIC2a+3 is “markedly reduced”.

In general, ED50 refers to the dose that gives a 50% effect, or the effect in half of the subjects.
